Source: the supplement of paper PMC10307832

What was measured:
Assay in all cases: relative viability (nuclei count vs DMSO), 5 days (fraction); higher = more cells survive
Vandetanib + Olaparib = compound: COc1cc2/c(=N/c3ccc(Br)cc3F)nc[nH]c2cc1OCC1CCN(C)CC1 [Vandetanib] + O=C(c1cc(Cc2n[nH]c(=O)c3ccccc23)ccc1F)N1CCN(C(=O)C2CC2)CC1 [Olaparib] (partner 8 µM)
Procedure, shortened: (§1)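 Relative viability is defined as nuclei in treated wells over nuclei in vehicle wells. Duplicate plates were run and medians reported. Lung cancer cell lines in 1536-well plates were dosed by pin tool one day after seeding, with one drug or with a fixed anchor-drug dose plus five library-drug doses (not always all listed) in √10 steps, and nuclei were counted after 5 days.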

[1] = compound: C1=CC=C2C(=C1)N=C(S2)C(C#N)C3=NC(=NC=C3)NCCC4=CN=CC=C4 + COc1cccc2cc(-c3nc([C@H]4CC[C@H](C(=O)O)CC4)n4ncnc(N)c34)[nH]c12 [OSI-027] (partner 0.5 µM)
Procedure, shortened: as §1

Vandetanib + Phenformin = compound: COc1cc2/c(=N/c3ccc(Br)cc3F)nc[nH]c2cc1OCC1CCN(C)CC1 [Vandetanib] + N=C(N)NC(=N)NCCc1ccccc1 [Phenformin] (partner 250 µM)
Procedure, shortened: as §1

Vandetanib + Alpelisib = compound: COc1cc2/c(=N/c3ccc(Br)cc3F)nc[nH]c2cc1OCC1CCN(C)CC1 [Vandetanib] + Cc1nc(NC(=O)N2CCC[C@H]2C(N)=O)sc1-c1ccnc(C(C)(C)C(F)(F)F)c1 [Alpelisib] (partner 2 µM)
Procedure, shortened: as §1

Cell Line	relative viability (Vandetanib + Olaparib; first compound 0.02 µM)	relative viability (Vandetanib + Olaparib; first compound 0.06325 µM)	relative viability (Vandetanib + Olaparib; first compound 0.2 µM)	relative viability (Vandetanib + Olaparib; first compound 0.6325 µM)	relative viability (Vandetanib + Olaparib; first compound 2 µM)	relative viability ([1]; first compound 0.01581 µM)	relative viability ([1]; first compound 0.05 µM)	relative viability ([1]; first compound 0.1581 µM)	relative viability ([1]; first compound 0.5 µM)	relative viability (Vandetanib + Phenformin; first compound 0.02 µM)	relative viability (Vandetanib + Phenformin; first compound 0.06325 µM)	relative viability (Vandetanib + Phenformin; first compound 0.2 µM)	relative viability (Vandetanib + Phenformin; first compound 0.6325 µM)	relative viability (Vandetanib + Phenformin; first compound 2 µM)	relative viability (Vandetanib + Alpelisib; first compound 0.02 µM)	relative viability (Vandetanib + Alpelisib; first compound 0.06325 µM)	relative viability (Vandetanib + Alpelisib; first compound 0.2 µM)	relative viability (Vandetanib + Alpelisib; first compound 0.6325 µM)	relative viability (Vandetanib + Alpelisib; first compound 2 µM)	relative viability ([1]; first compound 0.005 µM)
NCI-H441	0.498	0.576	0.646	0.658	0.616	0.669	0.556	0.719	0.487	0.849	0.783	0.898	0.916	0.717	0.795	0.535	0.896	0.848	0.728	–
NCI-H1793	0.86	0.803	0.74	0.658	0.577	0.303	0.215	0.261	0.245	0.371	0.355	0.328	0.299	0.292	0.65	0.635	0.623	0.756	0.512	0.276
NCI-H1915	0.244	0.227	0.265	0.231	0.24	0.583	0.619	0.671	0.584	0.366	0.353	0.387	0.372	0.365	0.964	1.05	1.04	1.08	1.05	0.623
HCC-366	0.438	0.34	0.389	0.362	0.31	0.961	0.856	1.05	0.672	0.596	0.603	0.62	0.586	0.505	0.44	0.289	0.328	0.528	0.226	0.482
NCI-H1792	0.425	0.442	0.469	0.66	0.409	0.64	0.759	1.16	0.36	0.298	0.236	0.184	0.254	0.175	0.676	0.672	0.694	0.705	0.565	0.648
LCLC-103H	0.729	0.657	0.529	0.698	0.707	0.521	0.41	0.505	0.397	0.316	0.319	0.357	0.344	0.31	0.923	0.898	0.983	0.972	0.943	0.387
SK-LU-1	0.496	0.313	0.54	0.437	0.597	0.374	0.349	0.345	0.297	0.518	0.405	0.464	0.491	0.558	1.06	0.594	1.02	0.926	0.758	0.278
ABC-1	0.538	0.617	0.774	0.904	0.726	0.407	0.51	0.606	0.517	0.248	0.205	0.256	0.275	0.266	1.01	0.787	0.95	1.12	0.827	0.592
NCI-H1666	0.787	0.749	0.812	0.758	0.754	0.839	0.804	0.849	0.812	0.541	0.559	0.585	0.586	0.562	0.89	0.764	0.793	0.668	0.401	0.776
COR-L23	0.327	0.343	0.379	0.379	0.347	0.839	0.716	0.985	0.511	0.485	0.442	0.428	0.452	0.464	0.701	0.528	0.114	0.773	0.902	0.369
NCI-H460	0.37	0.399	0.336	0.45	0.462	0.735	0.67	0.727	0.238	0.498	0.48	0.544	0.49	0.48	0.503	0.556	0.0233	0.434	0.419	0.281
